Assay results as given in patent publication US12509452B2, “Substituted-isoxazoline-containing aromatic compound, preparation method therefor, herbicidal composition and use thereof” (QINGDAO KINGAGROOT CHEMICAL COMPOUND CO., LTD., priority 2019, dated 2025).

Legend:
Assay in all cases: weeding effect in post-emergence stage
Format in all cases: in vivo
Alopecurus japonicus = settings: dose 125 g a.i./ha
Source text: (§1) The activity level criteria for plant damage (i.e., growth control rate) are as follows: • Level 5: growth control rate is above 85%; • Level 4: growth control rate is greater than or equal to 60% and less than 85%; • Level 3: growth control rate is greater than or equal to 40% and less than 60%; • Level 2: growth control rate is greater than or equal to 20% and less than 40%; • Level 1: growth control rate is greater than or equal to 5% and less than 20%; • Level 0: growth control rate is less than 5%.
(§2) The above growth control rates are fresh weight control rates.
(§3) Experiment on weeding effect in post-emergence stage:
(§4) Monocotyledonous and dicotyledonous weed seeds (Descurainia sophia, Capsella bursa-pastoris, Abutilon theophrasti, Galium aparine, Stellaria media, Lithospermum arvense, Rorippa indica, Alopecurus aequalis, Alopecurus japonicus, Beckmannia syzigachne, Sclerochloa dura, Conyza Canadensis, Phleum paniculatum, Veronica didyma Tenore, Bromus japonicus, Aegilops tauschii, Phalaris arundinacea, Amaranthus retroflexus, Chenopodium album, Commelina communis, Sonchus arvensis, Convolvulus arvensis, Cirsium setosum, Solanum nigrum, Acalypha australis, Digitaria sanguinalis, Echinochloa crusgalli, Setaria viridis, Setaria glauca, Leptochloa chinensis, Monochoria vaginalis, Sagittaria trifolia, Scirpus juncoides, Cyperus rotundus, Cyperus iria, Cyperus difformis, Fimbristylis, Portulaca oleracea, Xanthium sibiricum, Pharbitis nil, Conyza japonica, etc.) and major crop seeds (wheat, corn, rice, soybean, cotton, oilseed rape, millet, sorghum, potato, sesame, ricinus, etc.) were placed in plastic pots filled with soil, then covered with 0.5-2 cm of soil, allowed to grow in a good greenhouse environment. After 2 weeks of sowing, the test plants were treated in the 2-3 leaf stage. The tested compounds of the present invention were respectively dissolved in acetone, then added with Tween 80 and 1.5 liter/ha of emulsifiable concentrate of methyl oleate as synergist, diluted with a certain amount of water to obtain a solution with a certain concentration, and sprayed with a spray tower onto the plants. After the application, the plants were cultured for 3 weeks in the greenhouse, and then the experimental results of the weeding were counted. The doses of the used compounds were 500, 250, 125, 60, 15, 7.5 g a.i./ha, and the averages were obtained by repeating for three times.

Beckmannia syzigachne = settings: dose 125 g a.i./ha
Source text: as §1, §2, §3, §4

Conyza japonica = settings: dose 125 g a.i./ha
Source text: as §1, §2, §3, §4

Rorippa indica = tested on: Rorippa indica
Source text: as §1, §2, §3, §4

Compound	weeding effect in post-emergence stage, Alopecurus japonicus (activity level) (Alopecurus japonicus)	weeding effect in post-emergence stage, Beckmannia syzigachne (activity level) (Beckmannia syzigachne)	weeding effect in post-emergence stage, Conyza japonica (activity level) (Conyza japonica)	weeding effect in post-emergence stage, Rorippa indica (activity level) (Rorippa indica; dose 125 g a.i./ha)	weeding effect in post-emergence stage, Rorippa indica (activity level) (Rorippa indica; dose 15 g a.i./ha)
CCOC(=O)C1(C(F)F)CC(c2cc(-n3c(=O)cc(C(F)(F)F)n(C)c3=O)c(F)cc2Cl)=NO1 (racemic) [Compound 134]	5 (Level 5: growth control rate is above 85%)	5 (Level 5: growth control rate is above 85%)	5 (Level 5: growth control rate is above 85%)	5 (Level 5: growth control rate is above 85%)	–
CCOC(=O)C1(C(F)(F)F)CC(c2cc(-n3c(=O)cc(C(F)(F)F)n(C)c3=O)c(F)cc2Cl)=NO1 (racemic) [Compound 135]	5 (Level 5: growth control rate is above 85%)	5 (Level 5: growth control rate is above 85%)	5 (Level 5: growth control rate is above 85%)	5 (Level 5: growth control rate is above 85%)	–
CCOC(=O)C1(CCF)CC(c2cc(-n3c(=O)cc(C(F)(F)F)n(C)c3=O)c(F)cc2Cl)=NO1 (racemic) [Compound 136]	5 (Level 5: growth control rate is above 85%)	5 (Level 5: growth control rate is above 85%)	5 (Level 5: growth control rate is above 85%)	5 (Level 5: growth control rate is above 85%)	–
CCOC(=O)C1(CO)CC(c2cc(-n3c(=O)cc(C(F)(F)F)n(C)c3=O)c(F)cc2Cl)=NO1 (racemic) [Compound 142]	5 (Level 5: growth control rate is above 85%)	5 (Level 5: growth control rate is above 85%)	5 (Level 5: growth control rate is above 85%)	5 (Level 5: growth control rate is above 85%)	–
CCOC(=O)C1(C=O)CC(c2cc(-n3c(=O)cc(C(F)(F)F)n(C)c3=O)c(F)cc2Cl)=NO1 (racemic) [Compound 152]	5 (Level 5: growth control rate is above 85%)	5 (Level 5: growth control rate is above 85%)	5 (Level 5: growth control rate is above 85%)	5 (Level 5: growth control rate is above 85%)	–
CCOC(=O)C1(COC=O)CC(c2cc(-n3c(=O)cc(C(F)(F)F)n(C)c3=O)c(F)cc2Cl)=NO1 (racemic) [Compound 218]	5 (Level 5: growth control rate is above 85%)	5 (Level 5: growth control rate is above 85%)	5 (Level 5: growth control rate is above 85%)	5 (Level 5: growth control rate is above 85%)	–
CCOC(=O)C1(COC(C)=O)CC(c2cc(-n3c(=O)cc(C(F)(F)F)n(C)c3=O)c(F)cc2Cl)=NO1 (racemic) [Compound 219]	5 (Level 5: growth control rate is above 85%)	5 (Level 5: growth control rate is above 85%)	5 (Level 5: growth control rate is above 85%)	5 (Level 5: growth control rate is above 85%)	4 (Level 4: growth control rate is greater than or equal to 60% and less than 85%)
